The source made the active and inactive calls. No cut-off for these calls is given here.
Legend:
C6 [1] = assay: Upregulation of NGF production in rat C6 cells co-cultured with N2a cells at 10 to 50 uM incubated for 24 hrs followed by cell transfer to N2a cells by Western blot analysis; assay type: functional, cell-based; conditions: dose 10-50 µM
C6 [2] = assay: Neurotrophic activity in rat C6 cells assessed as NGF production at 10 to 50 uM incubated for 24 hrs by ELISA; assay type: functional, cell-based; conditions: dose 10-50 µM
C6 [3] = assay: Upregulation of Syp production in rat C6 cells co-cultured with N2a cells at 10 to 50 uM incubated for 24 hrs followed by cell transfer to N2a cells by Western blot analysis; assay type: functional, cell-based; conditions: dose 10-50 µM
[4] = Neurotrophic activity in […] N2a cells assessed as increase in NGF-mediated neurite outgrowth at 25 uM incubated for 24 hrs by cell imaging analysis relative to control; assay type: functional
C6 [5] = assay: Upregulation of BDNF production in rat C6 cells co-cultured with N2a cells at 10 to 50 uM incubated for 24 hrs followed by cell transfer to N2a cells by Western blot analysis; assay type: functional, cell-based; conditions: dose 10-50 µM
[6] = Neurotrophic activity in […] N2a cells assessed as increase in NGF-mediated neurite outgrowth at 10 uM incubated for 24 hrs by cell imaging analysis relative to control; assay type: functional

SMILES	Activity (C6 [1])	Activity (C6 [2])	Activity (C6 [3])	Activity [4] [%]	Activity (C6 [5])	Activity [6] [%]
COc1cc2c(c(O)c1CCO)CN(CCc1ccccc1)C2=O	Active	Dose-dependent effect	inactive	122.82	Active	
COc1cc2c(c(O)c1C/C=C(\C)CCC=C(C)C)C(=O)N(CCc1ccccc1)C2	Active	Active	inactive	116.82		
COc1cc2c(c(O)c1C/C=C(\C)CC/C=C(\C)C(=O)O)COC2=O	Active	Active	inactive		Active	
CC1=C(/C=C/C(C)=C/C=C/C(C)=C/C(=O)O)C(C)(C)CCC1 [TRETINOIN]						112.08

Reference: ChEMBL document CHEMBL4715868, “Neurotrophic isoindolinones from the fruiting bodies of Hericium erinaceus” (2021)
